Laboratory results from patent US20210254056A1, “IDENTIFICATION AND TARGETED MODULATION OF GENE SIGNALING NETWORKS” (CAMP4 THERAPEUTICS CORPORATION, priority 2017, published 2021).
Read-outs that look alike come from different tables or passages of the source.

Experiments:
[1] = test system: Early erythroblast progenitor cells derived from cord blood; assay: Reversion of immortality after doxycycline withdrawal (qRT-PCR, cell size); type: cell-based, human
hepatocytes = assay: RNA-seq of hepatocytes stimulated with the compounds of Table 68
[2] = sample D2-Dox− (2 days after doxycycline withdrawn)
[3] = sample D3-Dox− (3 days after doxycycline withdrawn)
[4] = sample D4-Dox− (4 days after doxycycline withdrawn)
[5] = sample D5-Dox− (5 days after doxycycline withdrawn)
[6] = hepatocytes stimulated with the compound, RNA-seq, significance: FPKM≥1, q-value≤0.05, log 2 fold change≥1.5
[7] = hepatocytes stimulated with the compound, RNA-seq, […]
[8] = sample D2-dox+ (day 2, on doxycycline; reference)
[9] = sample D6-dox− (6 days after doxycycline withdrawn)

Molecule: C[C@H]1c2cccc(O)c2C(=O)C2=C(O)[C@]3(O)C(=O)C(C(N)=O)=C(O)[C@@H](N(C)C)[C@@H]3[C@@H](O)[C@@H]21 [Dox]
- RQ of ALAS2 [1, 2]: 2.98
- RQ of BCLXL [1, 2]: 0.29
- RQ of HBB [1, 2]: 7.81
- RQ of MYC [1, 2]: 0.04
- RQ of RPS19 [1, 2]: 0.28
- RQ of p21 [1, 2]: 2.31
- RQ of p53 [1, 2]: 0.40
- RQ of ALAS2 [1, 3]: 1.44
- RQ of BCLXL [1, 3]: 0.11
- RQ of HBB [1, 3]: 5.57
- RQ of MYC [1, 3]: 0.03
- RQ of RPS19 [1, 3]: 0.21
- RQ of p21 [1, 3]: 1.05
- RQ of p53 [1, 3]: 0.21
- RQ of ALAS2 [1, 4]: 0.94
- RQ of BCLXL [1, 4]: 0.07
- RQ of HBB [1, 4]: 4.89
- RQ of MYC [1, 4]: 0.06
- RQ of RPS19 [1, 4]: 0.28
- RQ of p21 [1, 4]: 2.03
- RQ of p53 [1, 4]: 0.22
- RQ of ALAS2 [1, 5]: 0.40
- RQ of BCLXL [1, 5]: 0.04
- RQ of HBB [1, 5]: 2.13
- RQ of MYC [1, 5]: 0.06
- RQ of RPS19 [1, 5]: 0.27
- RQ of p21 [1, 5]: 1.61
- RQ of p53 [1, 5]: 0.20

Molecule: COc1cccc(-n2c(=O)[nH]c3cc(Cl)n(-c4ccc(-c5cccc(OC)c5O)cc4)c3c2=O)c1 [GSK621]
- # of genes having significantly altered expression (hepatocytes): 5

Molecule: CCC1=C(C)CN(C(=O)NCCc2ccc(S(=O)(=O)NC(=O)N[C@H]3CC[C@H](C)CC3)cc2)C1=O [Gilmepiride]
- # of genes having significantly altered expression (hepatocytes): 39

Molecule: NCCc1c[nH]cn1 [Histamine]
- # of genes having significantly altered expression (hepatocytes; [6]): 20

Molecule: Cc1ccc2nc(NC(=O)CSc3nc4c(c(=O)n3-c3ccccc3)SCC4)sc2c1 [IWP-2]
- # of genes having significantly altered expression (hepatocytes; [7]): 15

Molecule: Cn1cc(-c2ccc3nnc(C(F)(F)c4ccc5ncccc5c4)n3n2)cn1 [JNJ-38877605]
- # of genes having significantly altered expression (hepatocytes): 64

Molecule: c1ccc2c(-c3cnn4cc(-c5ccc(N6CCNCC6)cc5)cnc34)ccnc2c1 [LDN193189]
- # of genes having significantly altered expression (hepatocytes): 67

Molecule: Oc1c(F)cc(-c2cnccc2-c2ccc(N3CCOCC3)cc2)cc1F [LJI308]
- # of genes having significantly altered expression (hepatocytes): 1

Molecule: O=c1cc(N2CCOCC2)oc2c(-c3ccccc3)cccc12 [LY294002]
- # of genes having significantly altered expression (hepatocytes; [6]): 981

Molecule: Cc1ccc(NC(=O)c2ccc(CN3CCN(C)CC3)cc2)cc1Nc1nc(-c2cccnc2)cs1 [Mastinib]
- # of genes having significantly altered expression (hepatocytes; [7]): 151

Molecule: NCC(=O)Nc1ccc(-n2nc(C(F)(F)F)cc2-c2ccc3c(ccc4ccccc43)c2)cc1 [OSU-03012]
- # of genes having significantly altered expression (hepatocytes; [6]): 1786

Molecule: COc1ccc2[nH]c([S+]([O-])Cc3ncc(C)c(OC)c3C)nc2c1 (stereo not shown) [Omeprazole]
- # of genes having significantly altered expression (hepatocytes; [6]): 61

Molecule: CCNC1(C(N)=O)CCN(c2ncnc3c2nc(-c2ccccc2Cl)n3-c2ccc(Cl)cc2)CC1 [Otenabant]
- # of genes having significantly altered expression (hepatocytes; [6]): 36

Molecule: COc1cc2c(cc1OC)-c1c(OC)c(OC)cc3ccnc(c13)C2=O [Oxoglaucine]
- # of genes having significantly altered expression (hepatocytes; [6]): 31

Molecule: CCCCCCCCCCCCCCCCOC[C@H](COP(=O)([O-])OCC[N+](C)(C)C)OC(C)=O [PAF-C-16]
- # of genes having significantly altered expression (hepatocytes): 7

Molecule: Cc1[nH]c(/C=C2\C(=O)Nc3ccc(S(=O)(=O)Cc4c(Cl)cccc4Cl)cc32)c(C)c1C(=O)N1CCC[C@@H]1CN1CCCC1 [PHA-665752]
- # of genes having significantly altered expression (hepatocytes; [6]): 1767

Molecule: C[C@H]1[C@H]2N(C(=O)CN(C)N2C(=O)NCc2ccccc2)[C@@H](Cc2ccc(OP(=O)(O)O)cc2)C(=O)N1Cc1cccc2cccnc12 [PRI-724]
- # of genes having significantly altered expression (hepatocytes): 88

Molecule: OCc1ccc(-c2ccc(-c3ccc(CO)s3)o2)s1 [RITA (NSC 652287)]
- # of genes having significantly altered expression (hepatocytes): 105

Molecule: CNC(=O)c1cc(Oc2ccc(NC(=O)Nc3ccc(Cl)c(C(F)(F)F)c3)c(F)c2)ccn1 [Regorafenib]
- # of genes having significantly altered expression (hepatocytes; [6]): 10

Molecule: Cc1c(C(=O)NN2CCCCC2)nn(-c2ccc(Cl)cc2Cl)c1-c1ccc(Cl)cc1 [Rimonabant]
- # of genes having significantly altered expression (hepatocytes; [6]): 1392

Molecule: O=C1NC(=O)/C(=C/c2cccc(C(F)(F)F)c2)S1 [SMI-4a]
- # of genes having significantly altered expression (hepatocytes): 1436

Molecule: Oc1c2ccccc2c2c3c(cccc13)N=N2 [SP600125]
- # of genes having significantly altered expression (hepatocytes; [6]): 193

Molecule: C[C@@H]1CC(=O)c2c(ccc3c2C(=O)c2cccc(O)c2C3=O)C1 [STA-21]
- # of genes having significantly altered expression (hepatocytes; [6]): 6

Molecule: COc1ccc(C(=O)Nc2sc3c(c2C(N)=O)CCCC3)cc1OC [TCS 359]
- # of genes having significantly altered expression (hepatocytes): 63

Molecule: Cc1cc(C(C)Nc2ccccc2)c2nc(N3CCOCC3)cc(=O)n2c1 (stereo not shown) [TGX-221]
- # of genes having significantly altered expression (hepatocytes): 1

Molecule: O=C1CCC(N2C(=O)c3ccccc3C2=O)C(=O)N1 (stereo not shown) [Thalidomide]
- # of genes having significantly altered expression (hepatocytes; [6]): 3092

Molecule: COc1cccc(-c2cc(NCc3ccc4c(c3)OCO4)nc(N)n2)c1 [Wnt agonist 1]
- # of genes having significantly altered expression (hepatocytes): 138

Molecule: C[C@H]1c2cccc(O)c2C(=O)C2=C(O)[C@]3(O)C(=O)C(C(N)=O)=C(O)[C@@H](N(C)C)[C@@H]3[C@@H](O)[C@@H]21 [dox]
- RQ of ALAS2 [1, 8]: 1.00
- RQ of BCLXL [1, 8]: 1.00
- RQ of HBB [1, 8]: 1.00
- RQ of MYC [1, 8]: 1.00
- RQ of p21 [1, 8]: 1.00
- RQ of p53 [1, 8]: 1.00
- RQ (relative quantification of expression) of RPS19 ([1]; sample D2-dox+ (day 2, on doxycycline; reference), B-ACTIN control): 1.00
- RQ of ALAS2 [1, 9]: 0.17
- RQ of BCLXL [1, 9]: 0.03
- RQ of HBB [1, 9]: 0.57
- RQ of MYC [1, 9]: 0.03
- RQ of RPS19 [1, 9]: 0.21
- RQ of p21 [1, 9]: 1.14
- RQ of p53 [1, 9]: 0.16

Molecule: Activin
- # of genes having significantly altered expression (hepatocytes; [6]): 798

Molecule: Pifithrin-μ
- # of genes having significantly altered expression (hepatocytes): 5377

Molecule: Varenicline tartrate
- # of genes having significantly altered expression (hepatocytes): 7

B1: BMP4 (protein, UniProt P12644 293-408, looked up)
Bone morphogenetic protein 4: SPKHHSQRARKKNKNCRRHSLYVDFSDVGWNDWIVAPPGYQAFYCHGDCPFPLADHLNSTNHAIVQTLVNSVNSSIPKACCVPTELSAISMLYLDEYDKVVLKNYQEMVVEGCGCR
- # of genes having significantly altered expression (hepatocytes; [6]): 2218

B2: Wnt3a (protein, UniProt P56704 19-352, looked up)
Protein Wnt-3a: SYPIWWSLAVGPQYSSLGSQPILCASIPGLVPKQLRFCRNYVEIMPSVAEGIKIGIQECQHQFRGRRWNCTTVHDSLAIFGPVLDKATRESAFVHAIASAGVAFAVTRSCAEGTAAICGCSSRHQGSPGKGWKWGGCSEDIEFGGMVSREFADARENRPDARSAMNRHNNEAGRQAIASHMHLKCKCHGLSGSCEVKTCWWSQPDFRAIGDFLKDKYDSASEMVVEKHRESRGWVETLRPRYTYFKVPTERDLVYYEASPNFCEPNPETGSFGTRDRTCNVSSHGIDGCDLLCCGRGHNARAERRREKCRCVFHWCCYVSCQECTRVYDVHTCK
- # of genes having significantly altered expression (hepatocytes; [6]): 1142

B3: Nodal (protein, UniProt Q96S42 238-347, looked up)
Nodal homolog: HHLPDRSQLCRKVKFQVDFNLIGWGSWIIYPKQYNAYRCEGECPNPVGEEFHPTNHAYIQSLLKRYQPHRVPSTCCAPVKTKPLSMLYVDNGRVLLDHHKDMIVEECGCL
- # of genes having significantly altered expression (hepatocytes; [6]): 863

B4: Anti-mullerian hormone (protein, UniProt P03971 452-560, looked up)
Muellerian-inhibiting factor: SAGATAADGPCALRELSVDLRAERSVLIPETYQANNCQGVCGWPQSDRNPRYGNHVVLLLKMQVRGAALARPPCCVPTAYAGKLLISLSEERISAHHVPNMVATECGCR
- # of genes having significantly altered expression (hepatocytes; [6]): 912

B5: GDF10 (BMP3b) (protein, UniProt P55107 369-478, looked up)
Growth/differentiation factor …: QWDEPRVCSRRYLKVDFADIGWNEWIISPKSFDAYYCAGACEFPMPKIVRPSNHATIQSIVRAVGIIPGIPEPCCVPDKMNSLGVLFLDENRNVVLKVYPNMSVDTCACR
- # of genes having significantly altered expression (hepatocytes; [6]): 855
